Data as given in patent publication US7803930B2, “Antisense modulation of apolipoprotein B-expression” (Isis Pharmaceuticals, Inc., priority 2002, dated 2010).
In the oligonucleotide strings, read from the 5' end, every base follows the letter of its sugar. An asterisk marks phosphorothioate; unmarked linkages are phosphodiester. Other units and linkages are bracketed, terminal groups are in braces. A string of capitals states the bases alone. e = 2'-O-(2-methoxyethyl) (MOE); [5mC] = 5-methylcytosine; d = 2'-deoxy (DNA)

Test system: human apolipoprotein B mRNA
Experiment: Inhibition of human apolipoprotein B mRNA levels in HepG2 cells, quantitative real-time PCR
Type: cell-based
Conditions: for % INHIB / % Change in apolipoprotein B mRNA expression / % INHIB 50 nm / % INHIB 150 nm: HepG2 cells; for % INHIB (inhibition of human apolipoprotein B mRNA levels): HepG2 cells treated with 150 nM of compound, quantitative real-time PCR
Procedure, shortened: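 HepG2 cells at 80% confluency were transfected with antisense oligonucleotide using 3.75 μg/mL Lipofectin in Opti-MEM for 4-7 h and harvested 16-24 h after treatment. Apolipoprotein B mRNA was measured by real-time RT-PCR and normalized to GAPDH or RiboGreen total RNA. Percent inhibition came from untreated-control standard curves.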

[1] = human apolipoprotein B mRNA, oligonucleotides targeting genomic sequence SEQ ID NO 334, averages from two experiments
[2] = Table 1, 150 nM, averages from two experiments
[3] = 50 nm oligonucleotide, variable deoxy gap position
[4] = 150 nm oligonucleotide, variable deoxy gap position

Substance: 301065 (eA*eG*e[5mC]*eT*eG*d[5mC]*dA*dG*dT*dG*dG*d[5mC]*d[5mC]*dG*dA*eT*e[5mC]*eA*eG*e[5mC]; antisense) [compound 301065]
- % INHIB [1]: 50%

Substance: 301139 (eT*e[5mC]*eA*eA*eG*dA*dA*dT*dA*dA*dG*d[5mC]*dT*d[5mC]*d[5mC]*eA*eG*eA*eT*e[5mC]; antisense) [compound 301139]
- % INHIB [1]: 41%

Substance: 332776 (antisense GCCTAATTATTATTATCACC; sugars from the 5' end e5 d10 e5, all phosphorothioate, methylation of C not given here) [compound 332776]
- % Change in apolipoprotein B mRNA expression (50 nM, 24 hour (Table 40)): +10%
- % Change in apolipoprotein B mRNA expression (150 nM, 24 hour (Table 40)): +20%

Substance: 301121 (antisense eT*eT*eA*eT*eG*dA*dT*dA*dG*d[5mC]*dT*dA*d[5mC]*dA*dG*eA*eA*eT*eA*eA) [compound 301121]
- % INHIB [1]: 29%

Substance: 147796 (antisense eG*e[5mC]*eA*eG*e[5mC]*d[5mC]*dA*dG*dT*d[5mC]*dG*d[5mC]*dT*dT*dA*eT*e[5mC]*eT*e[5mC]*e[5mC]) [compound 147796]
- % INHIB [2]: 8%

Substance: 301219 (antisense eG*e[5mC]*e[5mC]*eA*eG*dA*dA*d[5mC]*dA*dT*dT*dT*dT*dA*dT*e[5mC]*eA*eA*eT*eG) [compound 301219]
- % INHIB (Table 15, 150 nM, averages from two experiments): 35%

Substance: 301024 (eA*eA*eA*eT*eG*dA*dA*dG*dA*dT*dT*dT*d[5mC]*dT*dT*eT*eT*eA*eA*eA; antisense) [compound 301024]
- % INHIB (inhibition of human apolipoprotein B mRNA levels) (averages from two experiments): 5%

Substance: 281603 (antisense eT*eA*eT*e[5mC]*eT*dG*d[5mC]*d[5mC]*dT*dG*dT*dG*dA*dA*dG*eG*eA*e[5mC]*eT*e[5mC]) [compound 281603]
- % INHIB (inhibition of human apolipoprotein B mRNA levels) (averages from two experiments): 82%

Substance: 301165 (antisense eA*e[5mC]*eT*e[5mC]*e[5mC]*dT*dT*dT*d[5mC]*dT*dA*dT*dA*d[5mC]*d[5mC]*eT*eG*eG*e[5mC]*eT) [compound 301165]
- % INHIB [1]: 47%

Substance: 281616 (antisense eG*eT*e[5mC]*eT*eA*dG*dA*dA*d[5mC]*dA*d[5mC]*d[5mC]*d[5mC]*dA*dG*eG*eA*eG*eA*eG) [compound 281616]
- % INHIB (inhibition of human apolipoprotein B mRNA levels) (averages from two experiments): 66%

Substance: 281594 (eG*eA*eT*eG*eG*d[5mC]*dT*dT*d[5mC]*dT*dG*d[5mC]*d[5mC]*dA*d[5mC]*eA*eT*eG*e[5mC]*eT; antisense) [compound 281594]
- % INHIB (inhibition of human apolipoprotein B mRNA levels) (averages from two experiments): 74%

Substance: 301200 (antisense eT*eT*eG*eA*eA*dT*dG*dA*d[5mC]*dA*d[5mC]*dT*dA*dG*dA*eT*eT*eT*eT*e[5mC]) [compound 301200]
- % INHIB [1]: 37%

Substance: 308641 (GCCTCAGTCTGCTTCGCACC; 2-10-8 MOE gapmer, phosphorothioate, chemistry not fully specified) [compound 308641]
- % INHIB 50 nm [3]: 77%
- % INHIB 150 nm [4]: 89%

Substance: 332784 (antisense GCCTCAGTCT; linkages s4 o1 s4 (s phosphorothioate, o phosphodiester), sugars by position and methylation of C not given here; 2'-MOE wings flank a DNA gap) [compound 332784]
- % Change in apolipoprotein B mRNA expression (10 nM, 24 hour (Table 41)): +12%
- % Change in apolipoprotein B mRNA expression (50 nM, 24 hour (Table 41)): −1%
- % Change in apolipoprotein B mRNA expression (150 nM, 24 hour (Table 41)): +7%

Substance: 301164 (antisense eG*e[5mC]*eT*eT*eT*d[5mC]*dG*d[5mC]*dA*dG*d[5mC]*dT*dG*dG*dG*e[5mC]*eA*eT*eG*e[5mC]) [compound 301164]
- % INHIB [1]: 55%

Substance: 332771 (antisense GCCTCAGTCTTATTCGCACC; sugars from the 5' end e5 d10 e5, all phosphorothioate, methylation of C not given here) [compound 332771]
- % Change in apolipoprotein B mRNA expression (50 nM, 24 hour (Table 40)): +37%
- % Change in apolipoprotein B mRNA expression (150 nM, 24 hour (Table 40)): +37%

Substance: 281602 (antisense eG*eT*e[5mC]*eT*eG*dA*dA*dG*dA*dA*dG*dA*dA*d[5mC]*d[5mC]*eT*e[5mC]*e[5mC]*eT*eG) [compound 281602]
- % INHIB (inhibition of human apolipoprotein B mRNA levels) (averages from two experiments): 84%

Substance: 301107 (antisense eT*eT*e[5mC]*eT*eT*dA*dG*dT*dA*d[5mC]*d[5mC]*dT*dG*dG*dA*eA*eG*eA*eT*eG) [compound 301107]
- % INHIB [1]: 23%

Substance: 301046 (eA*eG*eT*eT*eT*dA*dG*d[5mC]*dA*dA*dA*dA*dT*dA*dA*e[5mC]*eT*e[5mC]*eA*eG; antisense) [compound 301046]
- % INHIB (inhibition of human apolipoprotein B mRNA levels) (averages from two experiments): 80%

Substance: 147815 (antisense eT*eG*eG*e[5mC]*e[5mC]*dT*dA*d[5mC]*d[5mC]*dA*dG*dA*dG*dA*d[5mC]*eA*eG*eG*eT*eA) [compound 147815]
- % INHIB [2]: 45%

Substance: 281644 (e[5mC]*eT*eG*eT*e[5mC]*dT*d[5mC]*d[5mC]*dT*dA*d[5mC]*d[5mC]*dA*dA*dT*eG*e[5mC]*eT*eG*eG; antisense) [compound 281644]
- % INHIB (inhibition of human apolipoprotein B mRNA levels) (averages from two experiments): 26%

Substance: 308603 (eG*eT*e[5mC]*eA*eT*dG*dG*dT*dA*dG*d[5mC]*d[5mC]*dT*d[5mC]*dA*eG*eT*e[5mC]*eT*eG; antisense) [compound 308603]
- % INHIB 50 nm (Table 11 gene walk, 50 nM, averages from two experiments): 56%
- % INHIB 150 nm (Table 11 gene walk, 150 nM, averages from two experiments): 97%

Substance: 301123 (eG*eA*eT*eG*eT*dA*dT*dG*dT*d[5mC]*dA*dT*dA*dT*dA*eA*eA*eA*eG*eA; antisense) [compound 301123]
- % INHIB [1]: 26%

Substance: 308655 (antisense AGGTTACCAGCCACATGCAG; 8-10-2 2'-MOE gapmer, phosphorothioate, chemistry not fully specified) [compound 308655]
- % INHIB 50 nm [3]: 84%
- % INHIB 150 nm [4]: 83%

Substance: 147825 (antisense eA*eG*eA*eA*eG*d[5mC]*dT*dG*d[5mC]*d[5mC]*dT*d[5mC]*dT*dT*d[5mC]*eT*eT*e[5mC]*e[5mC]*e[5mC]) [compound 147825]
- % INHIB [2]: 72%

Substance: 301083 (antisense eA*eG*eA*eA*eG*dA*dT*dG*d[5mC]*dA*dA*d[5mC]*d[5mC]*dA*d[5mC]*eA*eT*eG*eT*eA) [compound 301083]
- % INHIB [1]: 29%

Substance: 301013 (e[5mC]*e[5mC]*e[5mC]*e[5mC]*eG*d[5mC]*dA*dG*dG*dT*d[5mC]*d[5mC]*d[5mC]*dG*dG*eT*eG*eG*eG*eA; antisense) [compound 301013]
- % INHIB (inhibition of human apolipoprotein B mRNA levels) (averages from two experiments): 82%

Substance: 281591 (eT*eG*e[5mC]*e[5mC]*eA*d[5mC]*dA*dT*dT*dG*d[5mC]*d[5mC]*d[5mC]*dT*dT*e[5mC]*e[5mC]*eT*e[5mC]*eG; antisense) [compound 281591]
- % INHIB (inhibition of human apolipoprotein B mRNA levels) (averages from two experiments): 90%

Substance: 281614 (antisense eT*eA*eA*eG*e[5mC]*dT*dG*dT*dA*dG*d[5mC]*dA*dG*dA*dT*eG*eA*eG*eT*e[5mC]) [compound 281614]
- % INHIB (inhibition of human apolipoprotein B mRNA levels) (averages from two experiments): 63%

Substance: 281621 (antisense e[5mC]*eA*eG*eT*eG*d[5mC]*d[5mC]*dT*dA*dA*dG*dA*dT*dG*dT*e[5mC]*eA*eG*e[5mC]*eA) [compound 281621]
- % INHIB (inhibition of human apolipoprotein B mRNA levels) (averages from two experiments): 53%

Substance: 301035 (eT*eT*e[5mC]*eT*eG*d[5mC]*dT*dT*dA*dT*dA*dG*dT*d[5mC]*dT*eA*e[5mC]*eT*eG*e[5mC]; antisense) [compound 301035]
- % INHIB (inhibition of human apolipoprotein B mRNA levels) (averages from two experiments): 82%

Substance: 301103 (antisense eT*e[5mC]*eT*eA*eA*dG*dA*dG*dG*dT*dA*dG*dA*dG*d[5mC]*eT*eA*eA*eA*eG) [compound 301103]
- % INHIB [1]: 7%
